Source: patent US20140088298A9, “CONJUGATES COMPRISING HYDROXYALKYL STARCH AND A CYTOTOXIC AGENT AND PROCESS FOR THEIR PREPARATION” (Fresenius Kabi Deutschland GmbH, priority 2010, published 2014)

Tests used:
Format in all cases: in vivo, NMRI:nu/nu mice
[1] = Body weight change as sign for toxicity, mouse tumor model A549; conditions: Table 21, A549; maximum body weight loss; conjugates 1 x 75 mg/kg day 8; Docetaxel 5 mg/kg days 8-12
Protocol: (§1) Tumor growth inhibition was used as therapeutic parameter. Additionally, body weight change was determined as signs for toxicity (particularly, potential hematological or gastrointestinal side effects).
(§2) Individual body weights of mice were determined twice weekly and mean body weight per group was related to the initial value in percent (body weight change, BWC), see tables in appendix.
(§3) Descriptive statistics was performed on the data of body weight and tumor volume. […] Statistical evaluation was performed with the U-test of Mann and Whitney with a significance level of p<0.05, using the Windows program […] 6.
(§4) Tables 18 to 24 summarize the results for the tested Docetaxel conjugates and the reference compound Taxotere®. […] The loss of body weight is known to be an indicator of gastro-intestinal and hepatotoxicity of the tested compound.

[2] = Body weight change as sign for toxicity, mouse tumor model MT-3; conditions: for Toxic deaths (at day): n=8
Protocol: as §1, §2, §3, §4

[3] = Body weight change as sign for toxicity, mouse tumor model PC3; conditions: Table 20, PC3; maximum body weight loss; conjugates 1 x 75 mg/kg day 6; Docetaxel 5 mg/kg days 6-10
Protocol: as §1
Descriptive statistics was performed on the data of body weight and tumor volume. […] 6.

Structure (SMILES)	BWC [%] (at day) [1]	Toxic deaths (at day) ([2]; Table 18, MT-3, conjugates 1 x 100 mg/kg i.v. day 7, Docetaxel 10 mg/kg days 7, 9, 11)	Toxic death (at day) ([2]; Table 23, MT-3, conjugates 1 x 75 mg/kg day 7, Docetaxel 5 mg/kg days 7-11)	BWC [%] (at day) [3]	Toxic deaths (at day) ([2]; Table 25, MT-3, conjugates 1 x 100 mg/kg day 7, Paclitaxel 12.5 mg/kg days 7-9, 10 mg/kg days 10-11)	Toxic deaths (at day) ([2]; Table 26, MT-3, conjugates 1 x 80 mg/kg day 10, Paclitaxel 10 mg/kg days 10-14)
CC(=O)O[C@@]12CO[C@@H]1C[C@H](O)[C@@]1(C)C(=O)[C@H](O)C3=C(C)[C@@H](OC(=O)[C@H](O)[C@@H](NC(=O)OC(C)(C)C)c4ccccc4)C[C@@](O)([C@@H](OC(=O)c4ccccc4)[C@H]21)C3(C)C [Taxotere, Docetaxel]	−5	4	0	−14		
CC(=O)O[C@H]1C(=O)[C@@]2(C)[C@H]([C@H](OC(=O)c3ccccc3)[C@]3(O)C[C@H](OC(=O)[C@H](O)[C@@H](NC(=O)c4ccccc4)c4ccccc4)C(C)=C1C3(C)C)[C@]1(OC(C)=O)CO[C@@H]1C[C@@H]2O [Paclitaxel]					1	0
